Measured values as given in ChEMBL document CHEMBL6109159, “Discovery of a Potent and Selective Protein Arginine Methyltransferase 5 (PRMT5) PROTAC Degrader” (J Med Chem, 2025).
Active and inactive are the calls of the source. The rule behind the calls is not given here.

Assays:
Assay type in all cases: cell-based
[1] = target: T1, von Hippel-Lindau disease tumor suppressor/Methylosome protein WDR77 (Homo sapiens, UniProt Q9BQA1+P40337); assay: PROTAC activity at MEP50/VHL in human MDA-MB-468 cells assessed as relative protein level at 0.5 uM measured after 24 hrs by Western blot analysis
T1 sequence (P40337 whole entry, looked up): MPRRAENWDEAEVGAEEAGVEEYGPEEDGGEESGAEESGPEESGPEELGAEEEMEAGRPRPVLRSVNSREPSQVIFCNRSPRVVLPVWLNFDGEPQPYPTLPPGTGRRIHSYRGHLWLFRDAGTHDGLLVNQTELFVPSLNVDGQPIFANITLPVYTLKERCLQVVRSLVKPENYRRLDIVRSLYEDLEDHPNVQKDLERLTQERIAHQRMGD
T1 sequence (Q9BQA1 whole entry, looked up): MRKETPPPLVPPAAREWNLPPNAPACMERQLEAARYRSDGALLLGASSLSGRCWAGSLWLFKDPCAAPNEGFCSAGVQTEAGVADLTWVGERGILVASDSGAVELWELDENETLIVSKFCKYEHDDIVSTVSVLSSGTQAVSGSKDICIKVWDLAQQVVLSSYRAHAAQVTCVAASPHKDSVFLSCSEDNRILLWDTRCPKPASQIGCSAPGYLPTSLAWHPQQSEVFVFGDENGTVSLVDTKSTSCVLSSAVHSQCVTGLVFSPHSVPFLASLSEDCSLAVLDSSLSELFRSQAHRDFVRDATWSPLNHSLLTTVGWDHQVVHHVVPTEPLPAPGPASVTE

[2] = target: T1, von Hippel-Lindau disease tumor suppressor/Methylosome protein WDR77; assay: PROTAC activity at MEP50/VHL in human MDA-MB-468 cells assessed as relative protein level at 5 uM measured after 24 hrs by Western blot analysis
[3] = target: T2, von Hippel-Lindau disease tumor suppressor/Protein arginine N-methyltransferase 5 (Homo sapiens, UniProt O14744+P40337); assay: PROTAC activity at […]/VHL in human MDA-MB-468 cells assessed as relative protein level at 0.5 uM measured after 24 hrs by Western blot analysis
T2 sequence (O14744 whole entry, looked up): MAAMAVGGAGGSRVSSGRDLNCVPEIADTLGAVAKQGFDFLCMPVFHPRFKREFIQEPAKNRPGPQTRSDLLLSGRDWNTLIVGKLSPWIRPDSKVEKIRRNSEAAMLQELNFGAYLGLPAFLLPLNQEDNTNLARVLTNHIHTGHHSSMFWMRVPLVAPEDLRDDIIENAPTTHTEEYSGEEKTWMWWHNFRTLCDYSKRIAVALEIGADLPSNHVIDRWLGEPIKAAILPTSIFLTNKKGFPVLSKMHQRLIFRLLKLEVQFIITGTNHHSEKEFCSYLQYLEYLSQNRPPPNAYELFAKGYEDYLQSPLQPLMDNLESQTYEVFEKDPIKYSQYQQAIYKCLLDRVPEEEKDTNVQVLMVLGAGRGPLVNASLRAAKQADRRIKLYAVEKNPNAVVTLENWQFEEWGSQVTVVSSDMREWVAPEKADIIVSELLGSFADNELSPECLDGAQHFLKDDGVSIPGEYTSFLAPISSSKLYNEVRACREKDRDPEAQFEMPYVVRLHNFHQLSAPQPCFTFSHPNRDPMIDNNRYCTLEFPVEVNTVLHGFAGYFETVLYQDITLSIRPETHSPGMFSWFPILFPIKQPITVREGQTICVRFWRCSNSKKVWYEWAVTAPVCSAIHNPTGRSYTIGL
T2 sequence (P40337 whole entry, looked up): as the sequence (P40337 whole entry, looked up) above

[4] = target: T2, von Hippel-Lindau disease tumor suppressor/Protein arginine N-methyltransferase 5; assay: PROTAC activity at PRMT5/VHL in human MDA-MB-468 cells assessed as relative protein level at 5 uM measured after 24 hrs by Western blot analysis

Activity [1]	Activity [2]	Activity [3]	Activity [4]	SMILES
Active	Active	Active	Active	Cc1ncsc1-c1ccc([C@H](CC(=O)NCCCCCC(=O)N2CCC(Nc3cc(C(=O)NC[C@H](O)CN4CCc5ccccc5C4)ncn3)CC2)NC(=O)[C@@H]2C[C@@H](O)CN2C(=O)[C@@H](NC(=O)C2(F)CC2)C(C)(C)C)cc1
Active	Active	Active	Active	Cc1ncsc1-c1ccc([C@H](CC(=O)NCCCCCCCC(=O)N2CCC(Nc3cc(C(=O)NC[C@H](O)CN4CCc5ccccc5C4)ncn3)CC2)NC(=O)[C@@H]2C[C@@H](O)CN2C(=O)[C@@H](NC(=O)C2(F)CC2)C(C)(C)C)cc1
Active	Active	Active	Active	Cc1ncsc1-c1ccc([C@H](CC(=O)NCCC(=O)N2CCC(Nc3cc(C(=O)NC[C@H](O)CN4CCc5ccccc5C4)ncn3)CC2)NC(=O)[C@@H]2C[C@@H](O)CN2C(=O)[C@@H](NC(=O)C2(F)CC2)C(C)(C)C)cc1
Active	Active	Active	Active	Cc1ncsc1-c1ccc([C@H](CC(=O)NCCOCCOCCOCCC(=O)N2CCC(Nc3cc(C(=O)NC[C@H](O)CN4CCc5ccccc5C4)ncn3)CC2)NC(=O)[C@@H]2C[C@@H](O)CN2C(=O)[C@@H](NC(=O)C2(F)CC2)C(C)(C)C)cc1
inactive	inactive	inactive	inactive	Cc1ncsc1-c1ccc([C@H](CC(=O)NCCOCCC(=O)N2CCC(Nc3cc(C(=O)NC[C@H](O)CN4CCc5ccccc5C4)ncn3)CC2)NC(=O)[C@@H]2C[C@@H](O)CN2C(=O)[C@@H](NC(=O)C2(F)CC2)C(C)(C)C)cc1
Active	Active	Active	Active	Cc1ncsc1-c1ccc([C@H](CC(=O)NCCCCC(=O)N2CCC(Nc3cc(C(=O)NC[C@H](O)CN4CCc5ccccc5C4)ncn3)CC2)NC(=O)[C@@H]2C[C@@H](O)CN2C(=O)[C@@H](NC(=O)C2(F)CC2)C(C)(C)C)cc1
Active	Active	Active	Active	Cc1ncsc1-c1ccc([C@H](CC(=O)NCCCCCCC(=O)N2CCC(Nc3cc(C(=O)NC[C@H](O)CN4CCc5ccccc5C4)ncn3)CC2)NC(=O)[C@@H]2C[C@@H](O)CN2C(=O)[C@@H](NC(=O)C2(F)CC2)C(C)(C)C)cc1

Second part, the compound before the results:

SMILES	Activity [1]	Activity [2]	Activity [3]	Activity [4]
Cc1ncsc1-c1ccc(CNC(=O)[C@@H]2C[C@@H](O)CN2C(=O)[C@@H](NC(=O)C2(F)CC2)C(C)(C)C)c(OCC(=O)NCCCCC(=O)N2CCC(Nc3cc(C(=O)NC[C@H](O)CN4CCc5ccccc5C4)ncn3)CC2)c1	Active	Active	Active	Active
Cc1ncsc1-c1ccc([C@H](CC(=O)N2CCC(Nc3cc(C(=O)NC[C@H](O)CN4CCc5ccccc5C4)ncn3)CC2)NC(=O)[C@@H]2C[C@@H](O)CN2C(=O)[C@@H](NC(=O)C2(F)CC2)C(C)(C)C)cc1	Active	Active	Active	Active
Cc1ncsc1-c1ccc(CNC(=O)[C@@H]2C[C@@H](O)CN2C(=O)[C@@H](NC(=O)C2(F)CC2)C(C)(C)C)c(OCC(=O)NCCOCCOCCC(=O)N2CCC(Nc3cc(C(=O)NC[C@H](O)CN4CCc5ccccc5C4)ncn3)CC2)c1	inactive	inactive	inactive	inactive
Cc1ncsc1-c1ccc(CNC(=O)[C@@H]2C[C@@H](O)CN2C(=O)[C@@H](NC(=O)C2(F)CC2)C(C)(C)C)c(OCC(=O)N2CCC(Nc3cc(C(=O)NC[C@H](O)CN4CCc5ccccc5C4)ncn3)CC2)c1	Active	Active	Active	Active
Cc1ncsc1-c1ccc([C@H](C)NC(=O)[C@@H]2C[C@@H](O)CN2C(=O)[C@@H](NC(=O)CCOCCOCCOCCOCCOCCC(=O)N2CCC(Nc3cc(C(=O)NC[C@H](O)CN4CCc5ccccc5C4)ncn3)CC2)C(C)(C)C)cc1	Active	Active	Active	Active
Cc1ncsc1-c1ccc(CNC(=O)[C@@H]2C[C@@H](O)CN2C(=O)[C@@H](NC(=O)C2(F)CC2)C(C)(C)C)c(OCC(=O)NCCOCCOCCOCCOCCOCCC(=O)N2CCC(Nc3cc(C(=O)NC[C@H](O)CN4CCc5ccccc5C4)ncn3)CC2)c1	inactive	Active	inactive	inactive
Cc1ncsc1-c1ccc(CNC(=O)[C@@H]2C[C@@H](O)CN2C(=O)[C@@H](NC(=O)C2(F)CC2)C(C)(C)C)c(OCC(=O)NCCCCCC(=O)N2CCC(Nc3cc(C(=O)NC[C@H](O)CN4CCc5ccccc5C4)ncn3)CC2)c1	Active	Active	Active	Active
Cc1ncsc1-c1ccc([C@H](C)NC(=O)[C@@H]2C[C@@H](O)CN2C(=O)[C@@H](NC(=O)COCCOCCOCCOCCOCC(=O)N2CC(Nc3cc(C(=O)NC[C@H](O)CN4CCc5ccccc5C4)ccn3)C2)C(C)(C)C)cc1	inactive	Active	inactive	inactive
Cc1ncsc1-c1ccc([C@H](CC(=O)NCCOCCOCCOCCOCCC(=O)N2CCC(Nc3cc(C(=O)NC[C@H](O)CN4CCc5ccccc5C4)ncn3)CC2)NC(=O)[C@@H]2C[C@@H](O)CN2C(=O)[C@@H](NC(=O)C2(F)CC2)C(C)(C)C)cc1	Active	Active	Active	Active
Cc1ncsc1-c1ccc(CNC(=O)[C@@H]2C[C@@H](O)CN2C(=O)[C@@H](NC(=O)C2(F)CC2)C(C)(C)C)c(OCC(=O)NCC(=O)N2CCC(Nc3cc(C(=O)NC[C@H](O)CN4CCc5ccccc5C4)ncn3)CC2)c1	Active	Active	Active	Active
Cc1ncsc1-c1ccc(CNC(=O)[C@@H]2C[C@@H](O)CN2C(=O)[C@@H](NC(=O)C2(F)CC2)C(C)(C)C)c(OCC(=O)NCCOCCOCCOCCC(=O)N2CCC(Nc3cc(C(=O)NC[C@H](O)CN4CCc5ccccc5C4)ncn3)CC2)c1	Active	Active	Active	Active
Cc1ncsc1-c1ccc([C@H](C)NC(=O)[C@@H]2C[C@@H](O)CN2C(=O)[C@@H](NC(=O)COCCOCCOCCOCCOCC(=O)N2CCC(Nc3cc(C(=O)NC[C@H](O)CN4CCc5ccccc5C4)ncn3)CC2)C(C)(C)C)cc1	Active	Active	Active	Active
Cc1ncsc1-c1ccc(CNC(=O)[C@@H]2C[C@@H](O)CN2C(=O)[C@@H](NC(=O)C2(F)CC2)C(C)(C)C)c(OCC(=O)NCCC(=O)N2CCC(Nc3cc(C(=O)NC[C@H](O)CN4CCc5ccccc5C4)ncn3)CC2)c1	Active	Active	Active	Active
